# Measurements taken from ChEMBL document CHEMBL4814003, “Novel dual-mode antitumor chlorin-based derivatives as potent photosensitizers and histone deacetylase inhibitors for photodynamic therapy and chemotherapy” (Eur J Med Chem, 2021).
# Tested on: HCT-116
# Assay: Phototoxicity in human HCT-116 cells assessed as reduction in cell viability irradiated 10 j/cm2 for 24 hrs followed by incubated for 24 hrs by CCK8 assay
# Type: functional, cell-based
# Settings: HCT-116, light or radiation study
row,SMILES,IC50 [nM]
1,C=Cc1c(C)c2cc3nc(c(C(=O)OC)c4[nH]c(cc5nc(cc1[nH]2)C(C)=C5CC)c(C)c4C(=O)OC)[C@@H](CCC(=O)O)[C@@H]3C,520
2,C=Cc1c(C)c2cc3nc(c(C(=O)OC)c4[nH]c(cc5nc(cc1[nH]2)C(C)=C5CC)c(C)c4C(=O)OC)[C@@H](CCC(=O)NCCCCCC(=O)Nc1ccccc1N)[C@@H]3C,210
3,C=Cc1c(C)c2cc3nc(c(C(=O)OC)c4[nH]c(cc5nc(cc1[nH]2)C(C)=C5CC)c(C)c4C(=O)OC)[C@@H](CCC(=O)NCCCC(=O)Nc1ccccc1N)[C@@H]3C,330
4,C=Cc1c(C)c2cc3nc(c(C(=O)OC)c4[nH]c(cc5nc(cc1[nH]2)C(C)=C5CC)c(C)c4C(=O)OC)[C@@H](CCC(=O)NCCCC(=O)NO)[C@@H]3C,220
5,C=Cc1c(C)c2cc3nc(c(C(=O)OC)c4[nH]c(cc5nc(cc1[nH]2)C(C)=C5CC)c(C)c4C(=O)OC)[C@@H](CCC(=O)Nc1ccccc1N)[C@@H]3C,23
6,C=Cc1c(C)c2cc3nc(c(C(=O)OC)c4[nH]c(cc5nc(cc1[nH]2)C(C)=C5CC)c(C)c4C(=O)OC)[C@@H](CCC(=O)NO)[C@@H]3C,11
7,C=Cc1c(C)c2cc3nc(cc4[nH]c(cc5nc(cc1[nH]2)C(C)=C5CC)c(C)c4C(=O)OC)[C@@H](CCC(=O)Nc1ccc(C(=O)NO)cc1)[C@@H]3C,31

# Tested on: A549
# Assay: Dark toxicity in human A549 cells assessed as reduction in cell viability incubated under dark for 48 hrs measured after 48 hrs by CCK8 assay
# Type: functional, cell-based
# Settings: A549, 48 h
row,SMILES,IC50 [nM]
1,C=Cc1c(C)c2cc3nc(c(C(=O)OC)c4[nH]c(cc5nc(cc1[nH]2)C(C)=C5CC)c(C)c4C(=O)OC)[C@@H](CCC(=O)O)[C@@H]3C,15700
2,C=Cc1c(C)c2cc3nc(c(C(=O)OC)c4[nH]c(cc5nc(cc1[nH]2)C(C)=C5CC)c(C)c4C(=O)OC)[C@@H](CCC(=O)NCCCCCC(=O)Nc1ccccc1N)[C@@H]3C,2670
3,C=Cc1c(C)c2cc3nc(c(C(=O)OC)c4[nH]c(cc5nc(cc1[nH]2)C(C)=C5CC)c(C)c4C(=O)OC)[C@@H](CCC(=O)NCCCC(=O)Nc1ccccc1N)[C@@H]3C,3730
4,C=Cc1c(C)c2cc3nc(c(C(=O)OC)c4[nH]c(cc5nc(cc1[nH]2)C(C)=C5CC)c(C)c4C(=O)OC)[C@@H](CCC(=O)NCCCC(=O)NO)[C@@H]3C,1840
5,C=Cc1c(C)c2cc3nc(c(C(=O)OC)c4[nH]c(cc5nc(cc1[nH]2)C(C)=C5CC)c(C)c4C(=O)OC)[C@@H](CCC(=O)Nc1ccccc1N)[C@@H]3C,590
6,C=Cc1c(C)c2cc3nc(c(C(=O)OC)c4[nH]c(cc5nc(cc1[nH]2)C(C)=C5CC)c(C)c4C(=O)OC)[C@@H](CCC(=O)NO)[C@@H]3C,370
7,C=Cc1c(C)c2cc3nc(cc4[nH]c(cc5nc(cc1[nH]2)C(C)=C5CC)c(C)c4C(=O)OC)[C@@H](CCC(=O)Nc1ccc(C(=O)NO)cc1)[C@@H]3C,9240

# Tested on: A549
# Assay: Phototoxicity in human A549 cells assessed as reduction in cell viability irradiated 10 j/cm2 for 24 hrs followed by incubated for 24 hrs by CCK8 assay
# Type: functional, cell-based
# Settings: A549, light or radiation study
row,SMILES,IC50 [nM]
1,C=Cc1c(C)c2cc3nc(c(C(=O)OC)c4[nH]c(cc5nc(cc1[nH]2)C(C)=C5CC)c(C)c4C(=O)OC)[C@@H](CCC(=O)O)[C@@H]3C,300
2,C=Cc1c(C)c2cc3nc(c(C(=O)OC)c4[nH]c(cc5nc(cc1[nH]2)C(C)=C5CC)c(C)c4C(=O)OC)[C@@H](CCC(=O)NCCCCCC(=O)Nc1ccccc1N)[C@@H]3C,230
3,C=Cc1c(C)c2cc3nc(c(C(=O)OC)c4[nH]c(cc5nc(cc1[nH]2)C(C)=C5CC)c(C)c4C(=O)OC)[C@@H](CCC(=O)NCCCC(=O)Nc1ccccc1N)[C@@H]3C,310
4,C=Cc1c(C)c2cc3nc(c(C(=O)OC)c4[nH]c(cc5nc(cc1[nH]2)C(C)=C5CC)c(C)c4C(=O)OC)[C@@H](CCC(=O)NCCCC(=O)NO)[C@@H]3C,220
5,C=Cc1c(C)c2cc3nc(c(C(=O)OC)c4[nH]c(cc5nc(cc1[nH]2)C(C)=C5CC)c(C)c4C(=O)OC)[C@@H](CCC(=O)Nc1ccccc1N)[C@@H]3C,180
6,C=Cc1c(C)c2cc3nc(c(C(=O)OC)c4[nH]c(cc5nc(cc1[nH]2)C(C)=C5CC)c(C)c4C(=O)OC)[C@@H](CCC(=O)NO)[C@@H]3C,130
7,C=Cc1c(C)c2cc3nc(cc4[nH]c(cc5nc(cc1[nH]2)C(C)=C5CC)c(C)c4C(=O)OC)[C@@H](CCC(=O)Nc1ccc(C(=O)NO)cc1)[C@@H]3C,900

# Tested on: HCT-116
# Assay: Dark toxicity in human HCT-116 cells assessed as reduction in cell viability incubated under dark for 48 hrs measured after 48 hrs by CCK8 assay
# Type: functional, cell-based
# Settings: HCT-116, 48 h
row,SMILES,IC50 [nM]
1,C=Cc1c(C)c2cc3nc(c(C(=O)OC)c4[nH]c(cc5nc(cc1[nH]2)C(C)=C5CC)c(C)c4C(=O)OC)[C@@H](CCC(=O)O)[C@@H]3C,31300
2,C=Cc1c(C)c2cc3nc(c(C(=O)OC)c4[nH]c(cc5nc(cc1[nH]2)C(C)=C5CC)c(C)c4C(=O)OC)[C@@H](CCC(=O)NCCCCCC(=O)Nc1ccccc1N)[C@@H]3C,9280
3,C=Cc1c(C)c2cc3nc(c(C(=O)OC)c4[nH]c(cc5nc(cc1[nH]2)C(C)=C5CC)c(C)c4C(=O)OC)[C@@H](CCC(=O)NCCCC(=O)Nc1ccccc1N)[C@@H]3C,9140
4,C=Cc1c(C)c2cc3nc(c(C(=O)OC)c4[nH]c(cc5nc(cc1[nH]2)C(C)=C5CC)c(C)c4C(=O)OC)[C@@H](CCC(=O)NCCCC(=O)NO)[C@@H]3C,5540
5,C=Cc1c(C)c2cc3nc(c(C(=O)OC)c4[nH]c(cc5nc(cc1[nH]2)C(C)=C5CC)c(C)c4C(=O)OC)[C@@H](CCC(=O)Nc1ccccc1N)[C@@H]3C,4140
6,C=Cc1c(C)c2cc3nc(c(C(=O)OC)c4[nH]c(cc5nc(cc1[nH]2)C(C)=C5CC)c(C)c4C(=O)OC)[C@@H](CCC(=O)NO)[C@@H]3C,4180
7,C=Cc1c(C)c2cc3nc(cc4[nH]c(cc5nc(cc1[nH]2)C(C)=C5CC)c(C)c4C(=O)OC)[C@@H](CCC(=O)Nc1ccc(C(=O)NO)cc1)[C@@H]3C,4600

# Molecular target: Histone deacetylase 1 (Homo sapiens, UniProt Q13547)
# Assay: Inhibition of human recombinant HDAC1 using Ac-Leu-Gly-Lys(Ac)-AMC as substrate by measuring fluorescence intensity incubated for 30 mins by microplate reader assay
# Settings: not given
# Chain of Histone deacetylase 1 (Q13547 whole entry): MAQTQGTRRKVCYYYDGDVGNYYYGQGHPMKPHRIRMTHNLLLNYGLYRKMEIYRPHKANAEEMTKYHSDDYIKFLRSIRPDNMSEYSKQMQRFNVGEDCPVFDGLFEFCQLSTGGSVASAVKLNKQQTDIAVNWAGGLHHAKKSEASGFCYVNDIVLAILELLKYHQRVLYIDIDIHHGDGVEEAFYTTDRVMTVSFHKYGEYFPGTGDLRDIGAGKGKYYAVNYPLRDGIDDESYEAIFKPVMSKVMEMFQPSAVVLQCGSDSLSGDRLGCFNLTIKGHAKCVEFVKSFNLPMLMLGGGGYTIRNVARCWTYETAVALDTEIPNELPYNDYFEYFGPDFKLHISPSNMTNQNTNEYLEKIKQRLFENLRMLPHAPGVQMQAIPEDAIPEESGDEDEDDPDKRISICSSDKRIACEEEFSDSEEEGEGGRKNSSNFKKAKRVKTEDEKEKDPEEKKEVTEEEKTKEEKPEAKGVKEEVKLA
row,SMILES,IC50 [nM]
1,C=Cc1c(C)c2cc3nc(c(C(=O)OC)c4[nH]c(cc5nc(cc1[nH]2)C(C)=C5CC)c(C)c4C(=O)OC)[C@@H](CCC(=O)NCCCCCC(=O)Nc1ccccc1N)[C@@H]3C,90000
2,C=Cc1c(C)c2cc3nc(c(C(=O)OC)c4[nH]c(cc5nc(cc1[nH]2)C(C)=C5CC)c(C)c4C(=O)OC)[C@@H](CCC(=O)NCCCC(=O)Nc1ccccc1N)[C@@H]3C,201000
3,C=Cc1c(C)c2cc3nc(c(C(=O)OC)c4[nH]c(cc5nc(cc1[nH]2)C(C)=C5CC)c(C)c4C(=O)OC)[C@@H](CCC(=O)NCCCC(=O)NO)[C@@H]3C,40000
4,C=Cc1c(C)c2cc3nc(c(C(=O)OC)c4[nH]c(cc5nc(cc1[nH]2)C(C)=C5CC)c(C)c4C(=O)OC)[C@@H](CCC(=O)Nc1ccccc1N)[C@@H]3C,224000
5,C=Cc1c(C)c2cc3nc(c(C(=O)OC)c4[nH]c(cc5nc(cc1[nH]2)C(C)=C5CC)c(C)c4C(=O)OC)[C@@H](CCC(=O)NO)[C@@H]3C,79000
6,C=Cc1c(C)c2cc3nc(cc4[nH]c(cc5nc(cc1[nH]2)C(C)=C5CC)c(C)c4C(=O)OC)[C@@H](CCC(=O)Nc1ccc(C(=O)NO)cc1)[C@@H]3C,28000
